Reference: patent publication US20260130933A1, “PHARMACEUTICAL COMPOSITION FOR PREVENTION OR TREATMENT OF NEPHROPATHY AND/OR DIABETES MELLITUS, COMPRISING ENAVOGLIFLOZIN” (DAEWOONG PHARMACEUTICAL CO., LTD., priority 2022, published 2026)

Test: Example 2: phase 3 trial, enavogliflozin 0.3 mg vs dapagliflozin 10 mg once a day for 24 weeks added to metformin in patients with type 2 diabetes (same efficacy, exploratory and safety endpoints)
Type: in vivo, human
Method: Subjects who met the inclusion/exclusion criteria were administered a placebo of the clinical trial drug under single-blind (subject blinding) conditions during a 2-week run-in period while continuing to receive metformin. […] The randomized subjects were administered two tablets of the clinical trial drug for each administration group once a day, and then visited the institution at weeks 6, 12, 18, and 24 during the 24-week administration period to conduct efficacy and safety evaluations.
• 1. Change in HbA1c at week 24 after administration of clinical trial drug compared to Visit 2 (randomization)
• 1. Change in HbA1c at each time point of weeks 6, 12, and 18 after administration of clinical trial drug compared to Visit 2 (randomization) • 2. Change in FPG at each time point of weeks 6, 12, 18, and 24 after administration of clinical trial drug compared to Visit 2 (randomization) • 3. Proportion of subjects achieving HbA1c<7% at each time point of weeks 6, 12, 18, and 24 after administration of clinical trial drug • 4. Proportion of subjects achieving HbA1c<6.5% at each time point of weeks 6, 12, 18, and 24 after administration of clinical trial drug • 5. Proportion of subjects achieving therapeutic response (HbA1c change (HbA1c at Visit 2-HbA1c at each evaluation time point)>0.5% or HbA1c<7% at each evaluation time point compared to Visit 2 (randomization)) at each time point of weeks 6, 12, 18 and 24 after administration of clinical trial drug
• 1. Change in fasting c-peptide at each time point of weeks 6, 12, 18, and 24 after administration of clinical trial drug compared to Visit 2 (randomization) • 2. Change in body weight at each time point of weeks 6, 12, 18, and 24 after administration of clinical trial drug compared to Visit 2 (randomization) • 3. Change in fasting lipid concentration (total cholesterol, LDL-C, HDL-C, and triglycerides) at each time point of weeks 6, 12, 18, and 24 after administration of clinical trial drug compared to Visit 2 (randomization) • 4. Changes in systolic or diastolic blood pressure at each time point of weeks 6, 12, 18, and 24 after administration of clinical trial drug compared to Visit 2 (randomization) • 5. Changes in β-cell function and insulin resistance measured by HOMA-β and HOMA-IR at each time point of weeks 6, 12, 18, and 24 after administration of clinical trial drug compared to Visit 2 (randomization) • 6. Changes in renal function-related indicators (UACR, UGCR) measured by UACR at each time point of weeks 6, 12, 18, and 24 after administration of clinical trial drug compared to Visit 2 (randomization) • 7. Changes in obesity-related indicators (adiponectin, leptin) at each time point of weeks 6, 12, 18, and 24 after administration of clinical trial drug compared to Visit 2 (randomization)

[1] = Week 6, PPS, enavogliflozin minus dapagliflozin
[2] = Week 6, mPPS1, enavogliflozin minus dapagliflozin
[3] = Week 6, mPPS2, enavogliflozin minus dapagliflozin
[4] = Week 12, PPS, enavogliflozin minus dapagliflozin

Structure (SMILES): OC[C@H]1O[C@@H](c2cc(Cc3ccc(C4CC4)cc3)c(Cl)c3c2CCO3)[C@H](O)[C@@H](O)[C@@H]1O [Enavogliflozin, (2S,3R,4R,5S,6R)-2-(7-chloro-6 (4-cyclopropylbenzyl)-2,3-dihydrobenzofuran-4-yl)-6-(hydroxymethyl)tetrahydro-2H-pyran-3,4,5-triol]
- UGCR change from baseline, LS mean difference [1]: 15.62 mg/mg
- leptin change from baseline, LS mean difference [1]: -0.81 ng/mL
- HDL-C change from baseline, ANCOVA LS mean (SE) (Week 6, mPPS1): 1.11(0.58) mg/dL
- HDL-C change from baseline, Mean (SD) (Week 6, mPPS1): 1.18(5.14) mg/dL
- HDL-C change from baseline, Median (Week 6, mPPS1): 1.00 mg/dL
- HDL-C, Mean (SD) (Week 6, mPPS1): 52.12(11.10) mg/dL
- HDL-C, Median (Week 6, mPPS1): 51.00 mg/dL
- LDL-C change from baseline, ANCOVA LS mean (SE) (Week 6, mPPS1): −0.09(1.89) mg/dL
- LDL-C change from baseline, Mean (SD) (Week 6, mPPS1): −0.67(15.12) mg/dL
- LDL-C change from baseline, Median (Week 6, mPPS1): -2.00 mg/dL
- LDL-C, Mean (SD) (Week 6, mPPS1): 85.85(31.51) mg/dL
- LDL-C, Median (Week 6, mPPS1): 79.00 mg/dL
- Triglycerides change from baseline, ANCOVA LS mean (SE) (Week 6, mPPS1): 8.62(6.88) mg/dL
- Triglycerides change from baseline, Mean (SD) (Week 6, mPPS1): 9.49(73.63) mg/dL
- Triglycerides change from baseline, Median (Week 6, mPPS1): -3.00 mg/dL
- Triglycerides, Mean (SD) (Week 6, mPPS1): 131.59(114.93) mg/dL
- Triglycerides, Median (Week 6, mPPS1): 97.00 mg/dL
- HDL-C change from baseline, LS mean difference [2]: -0.49 mg/dL
- LDL-C change from baseline, LS mean difference [2]: -4.29 mg/dL
- triglycerides change from baseline, LS mean difference [2]: 18.76 mg/dL
- Diastolic blood pressure change from baseline, ANCOVA LS mean (SE) (Week 6, mPPS2): −2.75 mmHg
- Diastolic blood pressure change from baseline, Mean (SD) (Week 6, mPPS2): −2.80 mmHg
- Diastolic blood pressure change from baseline, Median (Week 6, mPPS2): −3.00 mmHg
- Diastolic blood pressure, Mean (SD) (Week 6, mPPS2): 74.25 mmHg
- Diastolic blood pressure, Median (Week 6, mPPS2): 74.00 mmHg
- Systolic blood pressure change from baseline, ANCOVA LS mean (SE) (Week 6, mPPS2): −3.29(1.02) mmHg
- Systolic blood pressure change from baseline, Mean (SD) (Week 6, mPPS2): −3.28(9.34) mmHg
- Systolic blood pressure change from baseline, Median (Week 6, mPPS2): −4.00 mmHg
- Systolic blood pressure, Mean (SD) (Week 6, mPPS2): 126.44(14.45) mmHg
- Systolic blood pressure, Median (Week 6, mPPS2): 128.00 mmHg
- diastolic blood pressure change from baseline, LS mean difference [3]: −1.28 mmHg
- systolic blood pressure change from baseline, LS mean difference [3]: −0.58 mmHg
- Adiponectin change from baseline, ANCOVA LS mean (SE) (Week 12, PPS): 0.84 µg/mL
- Adiponectin change from baseline, Mean (SD) (Week 12, PPS): 0.9 µg/mL
- Adiponectin change from baseline, Median (Week 12, PPS): 0.68 µg/mL
- Adiponectin, Mean (SD) (Week 12, PPS): 7.87 µg/mL
- Adiponectin, Median (Week 12, PPS): 6.91 µg/mL
- HOMA-IR change from baseline, ANCOVA LS mean (SE) (Week 12, PPS): −1.58
- HOMA-IR change from baseline, Mean (SD) (Week 12, PPS): −1.36
- HOMA-IR change from baseline, Median (Week 12, PPS): −0.99
- HOMA-IR, Mean (SD) (Week 12, PPS): 2.10
- HOMA-IR, Median (Week 12, PPS): 1.61
- HOMA-β change from baseline, ANCOVA LS mean (SE) (Week 12, PPS): 5.57
- HOMA-β change from baseline, Mean (SD) (Week 12, PPS): 5.59
- HOMA-β change from baseline, Median (Week 12, PPS): 5.10
- HOMA-β, Mean (SD) (Week 12, PPS): 51.45
- HOMA-β, Median (Week 12, PPS): 41.60
- Leptin change from baseline, ANCOVA LS mean (SE) (Week 12, PPS): -2.64 ng/mL
- Leptin change from baseline, Mean (SD) (Week 12, PPS): -2.73 ng/mL
- Leptin change from baseline, Median (Week 12, PPS): -1.45 ng/mL
- Leptin, Mean (SD) (Week 12, PPS): 9.56 ng/mL
- Leptin, Median (Week 12, PPS): 6.60 ng/mL
- UACR change from baseline, ANCOVA LS mean (SE) (Week 12, PPS): -21.65 g/kg
- UACR change from baseline, Mean (SD) (Week 12, PPS): -18550 mg/kg
- UACR change from baseline, Median (Week 12, PPS): -1.40 g/kg
- UACR, Mean (SD) (Week 12, PPS): 19800 mg/kg
- UACR, Median (Week 12, PPS): 11.05 g/kg
- UGCR change from baseline, ANCOVA LS mean (SE) (Week 12, PPS): 64.70 mg/mg
- UGCR change from baseline, Mean (SD) (Week 12, PPS): 63.04 mg/mg
- UGCR change from baseline, Median (Week 12, PPS): 58.91 mg/mg
- UGCR, Mean (SD) (Week 12, PPS): 64.53 mg/mg
- UGCR, Median (Week 12, PPS): 62.30 mg/mg
- HOMA-IR change from baseline, LS mean difference [4]: 0.02
- HOMA-β change from baseline, LS mean difference [4]: −3.17
- UACR change from baseline, LS mean difference [4]: -18.27 g/kg
- UGCR change from baseline, LS mean difference [4]: 19.57 mg/mg
- leptin change from baseline, LS mean difference [4]: 0.07 ng/mL
- HDL-C change from baseline, ANCOVA LS mean (SE) (Week 12, mPPS1): 2.31(0.60) mg/dL
- HDL-C change from baseline, Mean (SD) (Week 12, mPPS1): 2.08(5.60) mg/dL
- HDL-C change from baseline, Median (Week 12, mPPS1): 2.00 mg/dL
